Data reported in ChEMBL document CHEMBL1201862, “PubChem BioAssay data set” (2004).
“And” between values parts separate entries of the source, which are not always exact repeats. Equal entries are not always repeated. The source made the active and inactive calls.

How the values were obtained:
[1] = tested on: Vero; assay: Vero cell cytotoxicity, cytotoxicity control for flavivirus capping enzyme inhibitors (AID 588742); type: functional; conditions: Chlorocebus sabaeus
[2] = molecular target: T1, Mannose-6-phosphate isomerase (Homo sapiens, UniProt P34949); assay: human PMI inhibitors, high substrate, primary screen, biochemical, fluorescence intensity, high mannose 6-phosphate (AID 1220)
T1 sequence (P34949 whole entry): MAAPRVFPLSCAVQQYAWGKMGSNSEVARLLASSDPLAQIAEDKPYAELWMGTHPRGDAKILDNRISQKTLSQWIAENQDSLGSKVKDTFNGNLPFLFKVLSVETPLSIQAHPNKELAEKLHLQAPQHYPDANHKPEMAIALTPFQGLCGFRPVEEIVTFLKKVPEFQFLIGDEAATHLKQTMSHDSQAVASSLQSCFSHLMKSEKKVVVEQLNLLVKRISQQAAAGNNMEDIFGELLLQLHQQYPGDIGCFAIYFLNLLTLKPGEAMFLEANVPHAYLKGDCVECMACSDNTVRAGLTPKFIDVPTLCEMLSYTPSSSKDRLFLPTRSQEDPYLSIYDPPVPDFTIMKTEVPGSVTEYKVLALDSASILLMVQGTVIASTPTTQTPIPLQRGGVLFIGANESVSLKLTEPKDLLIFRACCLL

[3] = molecular target: T2, Low molecular weight phosphotyrosine protein phosphatase (Homo sapiens, UniProt P24666); assay: LMPTP phosphatase inhibitors, dose response, biochemical, OMFP substrate, fluorescence intensity, set 2 (AID 743307); type: functional
T2 sequence (P24666 whole entry): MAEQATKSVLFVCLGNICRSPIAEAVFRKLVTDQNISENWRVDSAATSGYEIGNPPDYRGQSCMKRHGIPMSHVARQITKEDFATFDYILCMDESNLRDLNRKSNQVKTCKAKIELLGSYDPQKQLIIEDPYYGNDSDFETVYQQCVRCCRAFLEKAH

[4] = molecular target: T2, Low molecular weight phosphotyrosine protein phosphatase; assay: LMPTP phosphatase inhibitors, colorimetric pNPP readout, dose response, orthogonal assay, biochemical, absorbance, pNPP substrate, LMPTP-A isoform, set 2 (AID 743308); type: functional
[5] = HEK293T cell cytotoxicity, dose response, cytotoxicity control, CellTiter-Glo luminescence, dry powder, set 2 (AID 720595); type: functional, cell-based; conditions: HEK293
[6] = HeLa cell cytotoxicity, dose response, cytotoxicity control, CellTiter-Glo luminescence, dry powder, set 2 (AID 720593); type: functional, cell-based
[7] = molecular target: E3 ubiquitin-protein ligase Mdm2 (Homo sapiens, UniProt Q00987); assay: enhancers of MDM2-luciferase reporter signal, concentration-effect titration, project on inhibitors of MDM2 ubiquitin ligase, cellular assay, luminescent readout, 384-well plate format (AID 1394); type: functional;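 note: MDM2 E3 inhibitors raise luminescence so EC50 is for signal enhancement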
[8] = molecular target: Large T antigen (Simian virus 40, UniProt P03070); type: functional, Betapolyomavirus macacae;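 note: Confirmatory-stage PubChem screen for compounds that inhibit SV40 T antigen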
[9] = molecular target: G-protein coupled receptor 55 (Homo sapiens, UniProt Q9Y2T6); assay: GPR55 antagonists blocking LPI-driven arrestin recruitment, primary screen, imaging, U2OS, beta-arrestin-GFP, LPI agonist (AID 2013); type: functional;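 note: antagonist potency measured as reduced agonist-driven arrestin aggregation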
[10] = ZM109 Env clade C HIV-1 fusion inhibitors, dose response, HeLa effector, CEM target cells, luciferase, cherry-pick (AID 652058); type: functional, cell-based
[11] = HIV Env cell-cell fusion inhibitors, dose response, HIV entry, plate reader, dry powder (AID 687023); type: functional, cell-based
[12] = inhibitors of HIV Env-driven cell fusion, dose response, cherry-pick (AID 652057); type: functional, cell-based
[13] = molecular target: Paired box protein Pax-8 (Homo sapiens, UniProt Q06710); assay: inhibitors of PAX8-driven TPO luciferase reporter, dose response, RMG-I cells, cherry-pick (AID 687027); type: functional, cell-based;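 note: luciferase reporter driven by Pax8 target thyroperoxidase promoter measured by SteadyGlo luminescence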
[14] = IOSE-T80 ovarian epithelial cell cytotoxicity, dose response, cytotoxicity control for PAX8 inhibitor project, plate reader, dry powder samples (AID 743045); type: functional, cell-based
[15] = cytotoxicity dependent on PAX8, dose response, cell-based, plate reader, dry powder (AID 743049); type: functional
[16] = PAX5 activity inhibitors, dose response, selectivity assay for PAX8 inhibitor project, cell-based, plate reader, dry powder samples (AID 743047); type: functional;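 note: HEK293 cells carrying a Pax5 driven CD19 promoter luciferase reporter; potency of inhibitors that lower reporter luminescence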
[17] = cytotoxicity in COV434 cells, dose response, cytotoxicity control for PAX8 inhibitor project, cell-based, plate reader, dry powder, SA7 (AID 743145); type: functional
[18] = PAX2 cell-based inhibition, dose response, selectivity assay for PAX8 inhibitor project, plate reader, dry powder samples (AID 743048); type: functional;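 note: HEK293 cells carrying a WT1 promoter luciferase reporter driven by expressed Pax2; potency is for inhibition of Pax2 driven reporter signal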
[19] = IGROV1 ovarian cancer cell cytotoxicity, dose response, PAX8 inhibitor project, plate reader, dry powder samples (AID 743043); type: functional, cell-based; conditions: IGROV-1
[20] = NIH:OVCAR-3 ovarian cancer cell cytotoxicity, dose response, PAX8 inhibitor project, plate reader, dry powder samples (AID 743044); type: functional, cell-based
[21] = cytotoxicity in OV-90 ovarian cancer cells, dose response, PAX8 inhibitor project, cell-based, plate reader, dry powder, SA8 (AID 743149); type: functional
[22] = cytotoxicity in OVCAR8 ovarian cancer cells, dose response, PAX8 project, cell-based, plate reader, dry powder samples (AID 743197); type: functional; conditions: OVCAR-8
[23] = T. cruzi growth inhibition in host cells, dose response, cell-based, plate reader, dry powder, set 2 (AID 652275); type: functional
[24] = growth inhibition of intracellular T. cruzi, dose response, cell-based, plate reader, dry powder samples (AID 651845); type: functional
[25] = T. cruzi intracellular amastigote growth inhibition, dose response, imaging, CA-I/72 strain, bovine embryo skeletal muscle, dry powder (AID 651885); type: functional, cell-based
[26] = tested on: HEK293; assay: HEK cell cytotoxicity by LDH release, dose response, cytotoxicity control for IDE activator project, fluorescence, HEK cells (AID 588440); type: functional, cell-based; conditions: Homo sapiens;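 note: cytotoxicity by LDH release measuring loss of membrane integrity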
[27] = molecular target: T3, Insulin-degrading enzyme (Homo sapiens, UniProt P14735); assay: activators of endogenous IDE in HEK cells, dose response, cell-based, fluorescence polarization (AID 588439); type: functional
T3 sequence (P14735 whole entry): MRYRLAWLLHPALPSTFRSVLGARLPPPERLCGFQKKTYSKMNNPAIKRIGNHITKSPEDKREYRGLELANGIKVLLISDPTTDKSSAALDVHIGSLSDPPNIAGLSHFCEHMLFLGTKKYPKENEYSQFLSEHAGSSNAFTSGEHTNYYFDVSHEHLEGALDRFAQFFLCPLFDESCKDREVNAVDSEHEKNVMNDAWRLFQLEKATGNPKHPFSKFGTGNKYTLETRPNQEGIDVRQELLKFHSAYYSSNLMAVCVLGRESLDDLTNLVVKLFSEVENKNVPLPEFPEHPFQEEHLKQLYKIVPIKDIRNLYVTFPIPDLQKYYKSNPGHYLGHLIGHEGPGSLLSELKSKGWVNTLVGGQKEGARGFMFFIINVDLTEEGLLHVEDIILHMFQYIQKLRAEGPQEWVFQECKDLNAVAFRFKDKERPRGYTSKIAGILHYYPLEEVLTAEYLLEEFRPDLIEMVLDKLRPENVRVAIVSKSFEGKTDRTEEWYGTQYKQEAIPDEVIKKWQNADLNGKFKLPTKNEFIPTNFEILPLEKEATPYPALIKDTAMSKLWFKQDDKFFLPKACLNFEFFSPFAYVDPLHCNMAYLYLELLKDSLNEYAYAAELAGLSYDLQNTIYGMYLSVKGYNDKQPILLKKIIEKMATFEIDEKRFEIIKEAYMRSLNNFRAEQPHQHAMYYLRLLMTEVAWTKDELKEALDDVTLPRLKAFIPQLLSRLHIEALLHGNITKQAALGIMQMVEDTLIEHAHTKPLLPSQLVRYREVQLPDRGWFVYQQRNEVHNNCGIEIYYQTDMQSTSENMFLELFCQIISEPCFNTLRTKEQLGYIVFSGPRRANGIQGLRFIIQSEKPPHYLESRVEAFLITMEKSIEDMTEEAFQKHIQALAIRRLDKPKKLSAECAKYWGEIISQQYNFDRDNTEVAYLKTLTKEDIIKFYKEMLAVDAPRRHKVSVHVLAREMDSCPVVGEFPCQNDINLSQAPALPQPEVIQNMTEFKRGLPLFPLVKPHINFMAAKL

[28] = molecular target: Glutathione-S-transferase (Schistosoma japonicum, UniProt Q26513); assay: biotin-GST/anti-GST TR-FRET signal inhibitors, dose response, artefact control for Vif-APOBEC3G degradation inhibitor project, biochemical (AID 1117362); type: functional
[29] = tested on: HEK293; assay: optical interference in Abeta FP readout, dose response, artefact control for IDE activator project, biochemical, fluorescence polarization (AID 588442); type: functional, cell-based; conditions: Homo sapiens
[30] = molecular target: Ras and Rab interactor 1/Tyrosine-protein kinase ABL1 (Homo sapiens, UniProt P00519+Q13671); type: functional;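 note: biochemical TR-FRET dose-response test measuring inhibition of binding between Rin1 and Abl proteins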
[31] = molecular target: T3, Insulin-degrading enzyme; assay: activators of recombinant IDE enzyme, dose response, counter-screen for IDE activator project, biochemical, fluorescence polarization (AID 588681)
[32] = molecular target: Nonstructural protein 1 (Influenza A virus, UniProt Q194T2); type: functional, Influenza A virus (A/California/07/2009(H1N1))
[33] = cytotoxicity toward Colo320 cells – cell-based, CellTiter-Glo luminescence, IC50, dose response (AID 1117334); type: functional; conditions: COLO 320
[34] = cytotoxicity toward HT-29 cells – cell-based, CellTiter-Glo luminescence, IC50, dose response (AID 1117330); type: functional
[35] = SNU-C1 cell viability reduction, dose response, CellTiter-Glo luminescence (AID 1117323); type: functional, cell-based
[36] = cytotoxicity toward HCT116 cells – cell-based, CellTiter-Glo luminescence, IC50, dose response (AID 1117332); type: functional; conditions: HCT-116
[37] = HCT116 cell viability decrease, GSK3B pretreatment – CellTiter-Glo, IC50, dose response (AID 1117339); type: functional; conditions: HCT-116
[38] = Concentration-dependent survival of SW480 colon cancer line, luminescence detection with CellTiter-Glo, half-maximal inhibitory concentration (AID 1117338); type: functional
[39] = CellTiter-Glo luminescent dose response of DLD-1 viability loss (AID 1117352); type: functional
[40] = RKO cell viability reduction, dose response, CellTiter-Glo luminescence (AID 1117322); type: functional
[41] = inhibitors of Vif binding to APOBEC3G peptide, primary screen, biochemical, TR-FRET, GST-Vif 1-94, biotin-A3G peptide, dose response retest (AID 1117319); type: functional;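 note: TR-FRET signal of purified GST-Vif binding a biotinylated A3G peptide; inhibitors lower the FRET signal by blocking Vif and A3G binding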
[42] = molecular target: Transthyretin (Homo sapiens, UniProt P02766); assay: Luminescence-based cell-based high throughput dose response assay to identify activators of Transthyretin (TTR) transcription.; type: functional
[43] = cytotoxicity in HepG2 cells, dose response, cytotoxicity control, cell-based, plate reader, dry powder (AID 651947); type: functional

Ras and Rab interactor 1/Tyrosine-protein kinase ABL1, sequence (P00519 whole entry): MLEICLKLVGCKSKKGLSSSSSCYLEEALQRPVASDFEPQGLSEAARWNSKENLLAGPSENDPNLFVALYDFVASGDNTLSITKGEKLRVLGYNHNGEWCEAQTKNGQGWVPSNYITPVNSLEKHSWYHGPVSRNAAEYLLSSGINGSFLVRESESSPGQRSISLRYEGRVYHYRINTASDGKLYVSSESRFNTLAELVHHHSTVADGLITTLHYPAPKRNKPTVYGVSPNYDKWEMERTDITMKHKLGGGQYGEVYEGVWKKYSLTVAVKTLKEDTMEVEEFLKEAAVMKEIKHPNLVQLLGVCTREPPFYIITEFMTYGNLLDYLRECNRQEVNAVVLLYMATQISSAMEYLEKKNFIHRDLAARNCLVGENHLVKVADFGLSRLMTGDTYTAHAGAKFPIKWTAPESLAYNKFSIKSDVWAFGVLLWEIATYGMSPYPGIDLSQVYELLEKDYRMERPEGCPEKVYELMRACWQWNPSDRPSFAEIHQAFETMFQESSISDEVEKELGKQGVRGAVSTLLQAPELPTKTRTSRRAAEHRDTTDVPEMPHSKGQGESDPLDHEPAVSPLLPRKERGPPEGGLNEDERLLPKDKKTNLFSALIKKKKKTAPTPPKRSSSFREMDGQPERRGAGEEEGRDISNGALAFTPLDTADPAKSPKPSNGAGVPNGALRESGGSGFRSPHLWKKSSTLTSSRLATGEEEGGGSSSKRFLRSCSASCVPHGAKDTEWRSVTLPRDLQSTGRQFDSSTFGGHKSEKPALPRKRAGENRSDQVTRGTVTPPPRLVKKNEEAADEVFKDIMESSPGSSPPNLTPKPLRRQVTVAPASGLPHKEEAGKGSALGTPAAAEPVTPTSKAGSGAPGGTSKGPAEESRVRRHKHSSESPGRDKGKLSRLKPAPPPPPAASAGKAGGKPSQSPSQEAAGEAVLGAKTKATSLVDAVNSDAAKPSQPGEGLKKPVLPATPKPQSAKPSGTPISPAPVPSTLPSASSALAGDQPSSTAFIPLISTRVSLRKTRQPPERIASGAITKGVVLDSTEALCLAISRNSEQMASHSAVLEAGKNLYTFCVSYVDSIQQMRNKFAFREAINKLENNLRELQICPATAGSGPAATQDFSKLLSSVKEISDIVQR
Ras and Rab interactor 1/Tyrosine-protein kinase ABL1, sequence (Q13671 whole entry): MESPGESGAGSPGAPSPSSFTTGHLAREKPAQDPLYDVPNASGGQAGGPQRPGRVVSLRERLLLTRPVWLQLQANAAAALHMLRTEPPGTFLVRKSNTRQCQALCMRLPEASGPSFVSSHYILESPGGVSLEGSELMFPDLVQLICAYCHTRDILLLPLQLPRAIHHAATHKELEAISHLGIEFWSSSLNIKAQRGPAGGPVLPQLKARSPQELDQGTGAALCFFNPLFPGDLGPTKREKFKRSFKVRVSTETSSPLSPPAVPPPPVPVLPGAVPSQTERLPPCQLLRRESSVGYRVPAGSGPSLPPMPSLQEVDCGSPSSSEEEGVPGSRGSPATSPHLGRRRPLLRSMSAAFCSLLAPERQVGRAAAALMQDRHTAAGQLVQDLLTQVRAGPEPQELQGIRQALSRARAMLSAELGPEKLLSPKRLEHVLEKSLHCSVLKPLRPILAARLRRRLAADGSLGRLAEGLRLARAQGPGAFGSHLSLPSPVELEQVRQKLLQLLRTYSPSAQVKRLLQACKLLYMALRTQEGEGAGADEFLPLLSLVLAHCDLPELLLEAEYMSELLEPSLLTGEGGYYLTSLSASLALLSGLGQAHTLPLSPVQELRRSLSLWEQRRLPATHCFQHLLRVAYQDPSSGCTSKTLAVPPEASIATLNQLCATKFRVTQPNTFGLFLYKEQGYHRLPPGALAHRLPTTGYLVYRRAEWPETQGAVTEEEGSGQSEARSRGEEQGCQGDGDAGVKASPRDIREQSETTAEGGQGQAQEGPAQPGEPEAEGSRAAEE
G-protein coupled receptor 55, sequence (Q9Y2T6 whole entry, the tested form may be a part): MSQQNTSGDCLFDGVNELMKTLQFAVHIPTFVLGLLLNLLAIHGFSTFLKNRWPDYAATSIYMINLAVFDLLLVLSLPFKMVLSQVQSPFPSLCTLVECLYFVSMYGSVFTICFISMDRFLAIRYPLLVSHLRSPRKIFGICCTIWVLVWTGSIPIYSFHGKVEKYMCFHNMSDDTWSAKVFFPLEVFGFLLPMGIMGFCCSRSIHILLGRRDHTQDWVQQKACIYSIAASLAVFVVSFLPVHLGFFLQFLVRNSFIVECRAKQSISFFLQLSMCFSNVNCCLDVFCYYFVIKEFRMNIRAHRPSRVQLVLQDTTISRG
Paired box protein Pax-8, sequence (Q06710 whole entry): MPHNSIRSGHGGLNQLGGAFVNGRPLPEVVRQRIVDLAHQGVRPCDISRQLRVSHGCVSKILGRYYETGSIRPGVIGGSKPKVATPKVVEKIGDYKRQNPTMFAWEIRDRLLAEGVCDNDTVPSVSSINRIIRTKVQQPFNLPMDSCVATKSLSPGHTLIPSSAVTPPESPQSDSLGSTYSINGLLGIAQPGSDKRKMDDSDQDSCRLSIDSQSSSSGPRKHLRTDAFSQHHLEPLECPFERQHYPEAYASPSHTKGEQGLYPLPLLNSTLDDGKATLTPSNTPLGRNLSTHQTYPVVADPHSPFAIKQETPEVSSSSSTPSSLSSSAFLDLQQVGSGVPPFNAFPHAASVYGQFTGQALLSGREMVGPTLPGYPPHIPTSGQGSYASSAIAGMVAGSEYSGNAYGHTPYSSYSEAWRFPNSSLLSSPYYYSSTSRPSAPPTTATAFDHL
E3 ubiquitin-protein ligase Mdm2, sequence (Q00987 whole entry): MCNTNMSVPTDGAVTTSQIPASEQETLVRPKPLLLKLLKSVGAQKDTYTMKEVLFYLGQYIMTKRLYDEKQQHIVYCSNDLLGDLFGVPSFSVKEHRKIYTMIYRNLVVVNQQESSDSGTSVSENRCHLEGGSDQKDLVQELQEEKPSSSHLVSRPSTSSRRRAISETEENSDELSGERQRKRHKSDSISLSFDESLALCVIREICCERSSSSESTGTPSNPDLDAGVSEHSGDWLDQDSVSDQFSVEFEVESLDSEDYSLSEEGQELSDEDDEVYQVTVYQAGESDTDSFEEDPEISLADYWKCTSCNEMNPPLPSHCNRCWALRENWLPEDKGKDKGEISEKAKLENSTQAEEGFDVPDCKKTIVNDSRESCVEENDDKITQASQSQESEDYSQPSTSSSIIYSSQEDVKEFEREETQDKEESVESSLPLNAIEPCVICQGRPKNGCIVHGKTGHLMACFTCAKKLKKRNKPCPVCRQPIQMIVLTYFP
Glutathione-S-transferase, sequence (Q26513 whole entry): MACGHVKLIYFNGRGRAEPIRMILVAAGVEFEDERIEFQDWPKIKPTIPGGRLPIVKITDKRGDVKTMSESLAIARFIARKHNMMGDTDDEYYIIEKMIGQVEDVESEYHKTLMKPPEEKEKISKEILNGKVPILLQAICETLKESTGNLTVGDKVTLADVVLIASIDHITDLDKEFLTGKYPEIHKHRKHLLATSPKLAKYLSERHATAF
Large T antigen, sequence (P03070 whole entry): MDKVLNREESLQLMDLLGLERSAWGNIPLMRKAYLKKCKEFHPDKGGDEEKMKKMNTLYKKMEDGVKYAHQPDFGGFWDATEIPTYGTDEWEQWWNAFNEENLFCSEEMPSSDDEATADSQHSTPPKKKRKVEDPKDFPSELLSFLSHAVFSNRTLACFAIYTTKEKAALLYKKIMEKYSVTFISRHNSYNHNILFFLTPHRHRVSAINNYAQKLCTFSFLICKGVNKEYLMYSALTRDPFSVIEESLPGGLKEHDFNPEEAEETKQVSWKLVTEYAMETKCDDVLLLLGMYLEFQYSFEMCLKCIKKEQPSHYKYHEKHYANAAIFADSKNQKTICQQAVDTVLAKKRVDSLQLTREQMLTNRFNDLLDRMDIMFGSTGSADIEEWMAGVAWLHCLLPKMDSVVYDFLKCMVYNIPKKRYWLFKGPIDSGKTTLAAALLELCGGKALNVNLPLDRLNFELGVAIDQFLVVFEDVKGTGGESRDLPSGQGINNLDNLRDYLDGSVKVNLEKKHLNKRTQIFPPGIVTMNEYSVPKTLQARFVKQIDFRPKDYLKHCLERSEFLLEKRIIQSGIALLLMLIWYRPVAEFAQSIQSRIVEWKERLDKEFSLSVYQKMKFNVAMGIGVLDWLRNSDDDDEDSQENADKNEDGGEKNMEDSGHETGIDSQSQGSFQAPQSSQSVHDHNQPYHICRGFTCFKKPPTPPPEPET
Nonstructural protein 1, sequence (Q194T2 whole entry): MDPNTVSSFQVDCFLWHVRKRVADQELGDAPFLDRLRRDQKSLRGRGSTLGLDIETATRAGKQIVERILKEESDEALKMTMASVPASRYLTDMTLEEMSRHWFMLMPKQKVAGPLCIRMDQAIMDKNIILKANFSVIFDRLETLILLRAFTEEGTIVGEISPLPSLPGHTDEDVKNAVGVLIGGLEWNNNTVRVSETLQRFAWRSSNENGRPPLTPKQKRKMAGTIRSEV

SMILES: CCc1cccc(C)c1N=C(S)NCC1CCN(c2ccc(OC)cc2)C1 (stereo not drawn)
- CC50 [1]: > 40 µM (active)
- IC50 [2]: > 50 µM (not active)

SMILES: c1ccc(-c2nc(N3CCOCC3)c3ccccc3n2)cc1
- IC50 [3]: > 80 µM (inactive)
- IC50 [4]: > 80 µM (inactive)

SMILES: O=C(Cc1ccccc1)NC(c1ccco1)c1ccc2cccnc2c1O (stereo not drawn)
- AC50 [5]: 2.56 µM (active)
- AC50 [6]: 18.1 µM (active)

SMILES: CC1=NN(c2cccc(C(=O)O)c2)C(=O)/C1=C\C=C/c1ccccc1
- EC50 [7]: 4.82 µM (active)
- IC50 [8]: 20.4 µM (active)
- IC50 [9]: 3.3 µM (active)

SMILES: Cc1noc(C)c1S(=O)(=O)Nc1cccc2c1O[C@H](CN(C)Cc1ccc(C(F)(F)F)cc1)[C@H](C)CN([C@H](C)CO)C2=O
- AC50 [10]: 935 nM (active)
- AC50 [11]: 2.42 µM (active)
- AC50 [12]: 731 nM (active)

SMILES: O=C(C[C@@H]1C[C@H]2c3cc(NS(=O)(=O)c4ccc(F)cc4)ccc3O[C@H]2[C@H](CO)O1)NCc1ccc(Cl)cc1
- AC50 [13]: 5.93 µM (active)
- AC50 [14]: 19.8 µM (active)
- AC50 [15]: 45.7 µM (active)
- AC50 [16]: 28.1 µM (active)
- AC50 [17]: 0.676 nM (active)
- AC50 [18]: 34.3 µM (active)
- AC50 [19]: 43 µM (active)
- AC50 [20]: 16.1 µM (active)
- AC50 [21]: 19.1 µM (active)
- AC50 [22]: 25.8 µM (active)

SMILES: CC(C)N1C[C@@H](C)[C@H](CN(C)Cc2ccc(Oc3ccccc3)cc2)Oc2c(cccc2N(C)C(=O)c2ccncc2)C1=O
- AC50 [23]: 262 nM (active)
- AC50 [24]: 262 nM (active)
- IC50 [25]: 10 µM (inconclusive)

SMILES: O=C(O)CCCC[C@@H]1SC[C@@H]2NC(=O)N[C@@H]21 [BIOTIN]
- IC50 [26]: > 89.3 µM (inactive)
- EC50 [27]: 2.37 µM (active)
- IC50 [28]: 850 nM (active)
- EC50 [29]: 2.06 µM (active)
- IC50 [30]: > 3.73 nM (active) and 529 nM (active)
- EC50 [31]: 2.53 µM (active)
- IC50 [32]: < 200 nM (active)

SMILES: CC(C)(CO)[C@@H](O)C(=O)NCCC(=O)NCCSSCCNC(=O)CCNC(=O)[C@H](O)C(C)(C)CO
- IC50 [33]: > 20 µM (inactive)
- IC50 [34]: > 20 µM (inactive)
- IC50 [35]: > 20 µM (inactive)
- IC50 [36]: > 20 µM (inactive)
- IC50 [37]: > 20 µM (inactive)
- IC50 [38]: > 20 µM (inactive)
- IC50 [39]: > 20 µM (inactive)
- IC50 [40]: > 20 µM (inactive)

SMILES: CC(C)(C)CN1CCNC(=O)C1CC(=O)NCCc1ccccc1C(F)(F)F (stereo not drawn)
- IC50 [41]: > 100 µM (active)

SMILES: Cc1ccc([C@H]2C[C@@H](O)[C@H](n3cc(-c4ccc(F)cc4)nn3)CN2C(=O)c2cccs2)cc1
- EC50 [42]: > 167 µM (inactive)

SMILES: FC(F)(F)c1ccccc1CSc1nnc(-c2ccccc2)o1
- AC50 [43]: 23.1 µM (active)
